In assay [1] the test system is AT3 mammary tumor cell line. Kind of assay: AT3 mammary tumor challenge in mice treated with S-equol and/or anti-PD-1 antibody. It counts as in vivo, mouse. On the procedure:
The following three murine mammary tumor lines were tested to determine the effects of a PD-1 inhibitor, S-equol and a combination of the two therapies on tumor growth: (1) E0771 (B6 background), (2) AT-3 (B6 background), and (3) 4T1 (BalbC background). This experimental design includes four arms (using AT-3 as an example): (1) controls, (2) αPD-1, (3) S-equol, and (4) αPD-1+S-equol (FIG. 3) by injecting into mice 2×10^5 cells subcutaneously into the 4th mammary gland fat pad. Antibodies were administered α-PD-1: 200 μg/mice by i.p. injection every 3 days and S-equol was administered at 50 mg/kg/day by oral gavage. Treatment began 7 day after tumor challenge. Tumor growth trajectories were compared within treated mice using a repeated measures linear mixed model. The primary outcome was the logarithm of the tumor size, and the test statistic is the treatment×time interaction. Tumors were measured about 10 times. The number of recipient mice use used in the studies (n=8 per group) was based on the above study.
(§1) For tumor studies, 8 to 10-week-old mice were used. M-Wnt (5 Å˜10^5 cells), E0771 (5 Å˜10^5 cells), AT-3 (2 Å˜10^5 cells), and EMT-6 (5 Å˜10^5 cells) tumor cells were subcutaneously inoculated into the fourth mammary pad. B16F10 (0.5 Å˜10^6 cells) and MC38 (5 Å˜10^6 cells) tumor cells were subcutaneously inoculated into the back flank. Tumor volume was measured with calipers (0.5 Å˜length Å˜width2) on the indicated days. Anti-IgG2a (BioXcell, Cat: #BE0146) and anti-PD-1 (BioXcell, Cat: #BE0089) antibodies were administered through intraperitoneal (i.p.) injection at a dose of […] every 3 days starting on day 7 after tumor challenge for the duration as indicated. S-equol (from Ausio Pharmaceuticals) was administered daily by oral gavage at 50 mg/kg beginning on the day of tumor challenge and continuing throughout the entire tumor growth experiments.

For assay [2], the system named is B16 melanoma tumor cell line. Briefly: B16 melanoma tumor challenge in mice treated with S-equol and/or anti-PD-1 antibody. It counts as in vivo, mouse. On the procedure: FIG. 4. A schema for combination therapy. Mice were administered one of: (1) vehicle+rat IgG2a; (2) S-equol+rat IgG2a; (3) vehicle+anti-PD-1 antibody; or (4) S-equol+anti-PD-1 antibody. Mice receiving anti-PD-1 antibody were given 250 μg every 3 days, intraperitoneally, and mice receiving S-equol were given 50 mg/kg per day by oral gavage. Treatment started 7 days after tumor challenge with B16 melanoma.
Melanoma cell line B16 was tested to determine the effects of a PD-1 inhibitor, S-equol and a combination of the two therapies on tumor growth. This experimental design includes four arms: (1) controls, (2) αPD-1, (3) S-equol, and (4) αPD-1+S-equol (FIG. 4) by injecting into mice 5×10^5 cells subcutaneously. Antibodies were administered α-PD-1: 250 μg/mice by i.p. injection every 3 days and S-equol was administered at 50 mg/kg/day by oral gavage. Treatment began 7 day after tumor challenge. Tumor growth trajectories were compared within treated mice using a repeated measures linear mixed model. The primary outcome was the logarithm of the tumor size, and the test statistic is the treatment×time interaction. Tumors were measured about 10 times. The number of recipient mice use used in the studies (n=6 per group) was based on the above study.
as §1

The results in this text go back to patent US12070444B2, “Modulation of molecular markers using S-equol” (Board of Regents, The University of Texas System, priority 2020, dated 2024).

For `Oc1ccc([C@H]2COc3cc(O)ccc3C2)cc1` [S-equol], the tumor weight entry in assay [1] (AT3 (FIG. 12B)) and in assay [2] (B16 melanoma (FIG. 8A)) was “reduce tumor weight compared to control” throughout. Also, the tumor size result in assay [1] (AT3, excised tumors (FIG. 12C)) was “reduce tumor size compared to control”. Also, the tumor volume result is recorded as “reduce tumor volume compared to control” in assay [1] (AT3, anti-PD-1 200 μg every 3 days, S-equol 50 mg/kg per day, over 35 days post-challenge (FIG. 12A)); “reduce tumor volume compared to control” in assay [2] (B16 melanoma, anti-PD-1 250 μg every 3 days i.p., S-equol 50 mg/kg per day oral gavage, over 12 days post-challenge (FIG. 6)); “reduce tumor volume compared to control” in assay [2] (B16 melanoma, anti-PD-1 250 μg every 3 days i.p., S-equol 50 mg/kg per day oral gavage, over 19 days post-challenge (FIG. 7)); “reduce tumor volume compared to control” in assay [2] (B16 melanoma, legend headed over 16 days, text says over 12 days post-challenge (FIG. 9A)). The “tumor response (growth and tumor weight)” value in assay [2] (B16 melanoma, Example 14, four arms (FIG. 26B-C)) was “responded”.
